# Test results: US20180042982A1, “Methods for Treating HCV” (priority 2013, published 2018)
# Columns and labels:
# HCV replicon Genotype 3a = assay: HCV subgenomic stable replicon cell culture assay, genotype 3a; assay type: cell-based; details: Hepatitis C virus, read-out: Mean EC50, nM, ± Std. Dev.
# Excerpt: (§1) However, these variants had in vitro replication capacities of only 1.5% and 9.2% that of their corresponding wild-type replicons.
# [1] = tested on: replicon containing GT3a NS3 protease; assay: Resistant colony selection in replicon containing GT3a NS3 protease; assay type: cell-based, Hepatitis C virus; details: concentrations ≧100-fold over its EC50 value
# Excerpt: as §1
# [2] = tested on: resistance-associated variants in GT 1a (H77) replicon; assay: Activity against resistance-associated variants, GT 1a; assay type: cell-based, Hepatitis C virus
# Excerpt: as §1
# [3] = tested on: resistance-associated variants in GT 1b (Con-1) replicon; assay: Activity against resistance-associated variants, GT 1b; assay type: cell-based, Hepatitis C virus
# Excerpt: as §1
# HCV = assay: Anti-HCV efficacy of Compound 1 at different doses; parameters: species or system Hepatitis C virus; details: 200-300 mg Compound 1 compared with 400 mg Compound 1
structure (smiles),measurement,setting,value
CC(C)(C)[C@@H]1NC(=O)O[C@@H]2CCC[C@H]2OC/C=C/C(F)(F)c2nc3ccccc3nc2O[C@@H]2C[C@@H](C(=O)N[C@]3(C(=O)NS(=O)(=O)C4(C)CC4)C[C@H]3C(F)F)N(C2)C1=O [Compound 1],EC50,HCV replicon Genotype 3a,1.6 ± 0.49 nM
same,resistant colony selection,[1],selected very few colonies
same,activity against common variants at NS3 amino acid positions 155 and 168,[2]; GT1a variants conferring resistance to other HCV protease inhibitors,retained its activity
same,activity against NS5A inhibitor and NS5B inhibitor resistance-associated variants,"[2]; M28T, M28V, Q30D, Q30R, Y93C, Y93H, Y93N, L31V+Y93H, C316Y, M414T, Y448C, Y448H, S556G and S559G in GT 1a",potent activity
same,inhibitory activity against NS3 resistance-associated variants,"[2]; V36M, R155K, D168A and D168V in GT 1a (H77)",nearly equivalent to that against wild-type HCV replicon
same,activity against common variants at NS3 amino acid positions 155 and 168,[3]; GT1b variants conferring resistance to other HCV protease inhibitors,retained its activity
same,activity against NS5A inhibitor and NS5B inhibitor resistance-associated variants,"[3]; L28T, Y93H, S282T, C316Y, Y448H and S556G in GT 1b",potent activity
same,inhibitory activity against NS3 resistance-associated variants,"[3]; T54A, R155K, D168V and V170A in GT 1b (Con-1)",nearly equivalent to that against wild-type HCV replicon
same,anti-HCV efficacy of 200-300 mg versus 400 mg,HCV,comparable anti-HCV efficacy
